Assay results published in patent US10508109B2 (priority 2015, dated 2019).
Structures can show the parent of a compound that is named as a salt. Where two headings read alike, the source gives them in different places.

How the values were obtained:
SUV39H2 = SUV39H2 (Homo sapiens (Human), UniProt Q9H5I1); conditions: read-out: IC50 (μM) Suv 39H2 assay
A549 = test: Cell-based assay, anti-proliferative activity (Cell Counting Kit-8, 72 hours); conditions: Homo sapiens, read-out: IC50 (μM) A549
Method in brief: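 Following seeding into 96-well microtiter plates, the cells receive candidate inhibitors, and cellular growth is quantified at the end of the exposure period. An IC50 is computed for each compound.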

HCT-116 = test: as above; conditions: Homo sapiens, read-out: IC50 (μM) HCT-116
Method in brief: (§1)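 Cells seeded at 2,000–3,000 per well and exposed 72 h to compound at 0–100 micro-M (2-fold series). Growth measured with CCK-8; IC50 taken as anti-proliferative indicator.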

PC14 = test: as above; conditions: Homo sapiens, read-out: IC50 (μM) PC14
Method in brief: as §1

HFL1 = test: as above; conditions: Homo sapiens, read-out: IC50 (μM) HFL1
Method in brief: as §1

CCD-18Co = test: as above; conditions: Homo sapiens, read-out: IC50 (μM) CCD-18Co
Method in brief: as §1

[1] = A549 cells, 72 hours, Cell Counting Kit-8
[2] = HCT-116 cells, 72 hours, Cell Counting Kit-8
[3] = PC-14, PC14 cells, 72 hours, Cell Counting Kit-8
[4] = HFL1 cells, 72 hours, Cell Counting Kit-8
[5] = CCD-18Co cells, 72 hours, Cell Counting Kit-8
[6] = A549 cells, Cell Counting Kit-8, 72 hours
[7] = HCT-116 cells, Cell Counting Kit-8, 72 hours
[8] = PC-14, PC14 cells, Cell Counting Kit-8, 72 hours
[9] = HFL1 cells, Cell Counting Kit-8, 72 hours
[10] = CCD-18Co cells, Cell Counting Kit-8, 72 hours

SUV39H2, sequence (Q9H5I1 whole entry): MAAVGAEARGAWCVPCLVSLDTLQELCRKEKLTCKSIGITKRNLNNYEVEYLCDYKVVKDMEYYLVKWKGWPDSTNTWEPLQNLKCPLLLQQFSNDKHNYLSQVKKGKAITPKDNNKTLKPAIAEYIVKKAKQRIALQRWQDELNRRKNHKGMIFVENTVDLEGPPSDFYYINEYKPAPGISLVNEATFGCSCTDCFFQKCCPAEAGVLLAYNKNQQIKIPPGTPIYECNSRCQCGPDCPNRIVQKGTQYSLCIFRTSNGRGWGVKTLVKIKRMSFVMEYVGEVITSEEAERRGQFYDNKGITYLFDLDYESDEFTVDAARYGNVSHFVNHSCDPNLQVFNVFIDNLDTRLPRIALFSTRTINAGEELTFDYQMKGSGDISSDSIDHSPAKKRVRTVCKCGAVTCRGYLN

Row | SMILES | IC50 (SUV39H2; enzyme assay) | IC50 (A549; [1]) | IC50 (HCT-116; [2]) | IC50 (PC14; [3]) | IC50 (HFL1; [4]) | IC50 (CCD-18Co; [5]) | IC50 (A549; [6]) | IC50 (HCT-116; [7]) | IC50 (PC14; [8]) | IC50 (HFL1; [9]) | IC50 (CCD-18Co; [10]) | IC50 (A549; A549, 72 h) | IC50 (HCT-116; HCT-116, 72 h) | IC50 (PC14; PC-14, 72 h) | IC50 (HFL1; HFL1, 72 h) | IC50 (CCD-18Co; CCD-18Co, 72 h) | IC50 (SUV39H2)
1 | COc1cc(OC)c(-c2cn3cc(NCCN)c(N4CCN(S(=O)(=O)C5CC5)CC4)nc3n2)cc1Cl [Example 222, N^1-(2-(5-chloro-2,4-dimethoxyphenyl)-7-(4-(cyclopropylsulfonyl)-piperazin-1-yl)imidazo[1,2-a]pyrimidin-6-yl)ethane-1,2-diamine] | 0.00597 µM | 10 µM | 10 µM | 10 µM | 10 µM | 10 µM | – | – | – | – | – | – | – | – | – | – | –
2 | COc1cc(OC)c(-c2cn3ccc(N4CC[C@H](NCc5ccc(F)cc5)C4)cc3n2)cc1Cl [Example 302, (S)-1-(2-(5-chloro-2,4-dimethoxyphenyl)imidazo[1,2-a]pyridin-7-yl)-N-(4-fluorobenzyl)pyrrolidin-3-amine] | 0.0153 µM | 1.5 µM | 0.92 µM | 1.4 µM | 0.72 µM | 1.1 µM | – | – | – | – | – | – | – | – | – | – | –
3 | COc1cc(OC)c(-c2cn3ccc(N4CCCN(S(=O)(=O)N(C)C)CC4)cc3n2)cc1Cl [Example 200, 4-[2-(5-chloro-2,4-dimethoxyphenyl)imidazo[1,2-a]pyridin-7-yl]-N,N-dimethyl-1,4-diazepane-1-sulfonamide] | 0.00674 µM | – | – | – | – | – | 1.6 µM | 2 µM | 1.3 µM | 1.7 µM | 3 µM | – | – | – | – | – | –
4 | COc1cc(OC)c(-c2cn3ccc(N4CCC(O)C4)cc3n2)cc1Br (stereo not drawn) [Example 7, 1-(2-(5-bromo-2,4-dimethoxyphenyl)imidazo[1,2-a]pyridin-7-yl)pyrrolidin-3-ol] | 0.00544 µM | – | – | – | – | – | – | – | – | – | – | 6.9 µM | 7 µM | 6.1 µM | 6.8 µM | 7.6 µM | –
5 | COc1cc(OCCCN(C)C)c(-c2cn3ccc(N4CCN(S(=O)(=O)C(C)C)CC4)cc3n2)cc1Cl [Example 197, 3-(4-Chloro-2-(7-(4-(isopropylsulfonyl)piperazin-1-yl)imidazo[1,2-a]pyridin-2-yl)-5-methoxyphenoxy)-N,N-dimethylpropan-1-amine] | 0.0144 µM | – | – | – | – | – | 3.4 µM | 3.8 µM | 2.3 µM | 2.9 µM | 2.9 µM | – | – | – | – | – | –
6 | COc1cc(OC)c(-c2cn3ccc(N4CCN(C(=O)C5CCCC5)CC4)nc3n2)cc1Cl [Example 243, (4-(2-(5-chloro-2,4-dimethoxyphenyl)imidazo[1,2-a]pyrimidin-7-yl)-piperazin-1-yl)(cyclopentyl)methanone] | 0.0183 µM | 4.7 µM | 5.8 µM | 3.3 µM | 4.8 µM | 6.1 µM | – | – | – | – | – | – | – | – | – | – | –
7 | COc1cc(OC)c(-c2cn3ccc(N4CCCN(P(=O)(OC)OC)CC4)cc3n2)cc1Cl [Example 207, dimethyl (4-(2-(5-chloro-2,4-dimethoxyphenyl)imidazo[1,2-a]pyridin-7-yl)-1,4-diazepan-1-yl)phosphonate] | 0.0113 µM | – | – | – | – | – | – | – | – | – | – | 10 µM | 10 µM | 10 µM | 10 µM | 10 µM | –
8 | CC[C@@H](C)[C@H](N)C(=O)Nc1ccn2cc(-c3cc(Cl)c(OC)cc3OC)nc2c1 [Example 258, (2S,3R)-2-amino-N-(2-(5-chloro-2,4-dimethoxyphenyl)imidazo[1,2-a]-pyridin-7-yl)-3-methylpentanamide] | 0.0639 µM | 5.8 µM | 7.6 µM | 5.7 µM | 6.8 µM | 4.6 µM | – | – | – | – | – | – | – | – | – | – | –
9 | COc1cc(OC)c(-c2cn3ccc(N4CCC(CNS(=O)(=O)C5CC5)CC4)cc3n2)cc1Cl [Example 149, N-((1-(2-(5-Chloro-2,4-dimethoxyphenyl)imidazo[1,2-a]pyridin-7-yl)piperidin-4-yl)methyl)cyclopropanesulfonamide] | 0.00672 µM | – | – | – | – | – | 2.5 µM | 2.3 µM | 2.4 µM | 1.9 µM | 4.8 µM | – | – | – | – | – | –
10 | COc1cc(OC)c(-c2cn3ccc(N4CCN(S(=O)(=O)C5CC5)C(COCCN(C)C)C4)cc3n2)cc1Cl (stereo not drawn) [Example 245, 2-((4-(2-(5-chloro-2,4-dimethoxyphenyl)imidazo[1,2-a]pyridin-7-yl)-1-(cyclopropylsulfonyl)piperazin-2-yl)methoxy)-N,N-dimethylethanamine] | 0.00863 µM | 5.5 µM | 9.4 µM | 5.1 µM | 5.4 µM | 5 µM | – | – | – | – | – | – | – | – | – | – | –
11 | COc1cc(OC)c(-c2cn3ccc(N4CCNCC4)nc3n2)cc1Cl [Example 153, 2-(5-chloro-2,4-dimethoxyphenyl)-7-(piperazin-1-yl)imidazo[1,2-a]-pyrimidine] | 0.0526 µM | – | – | – | – | – | 10 µM | 8.6 µM | 4.1 µM | 5.3 µM | 11 µM | – | – | – | – | – | –
12 | COc1cc(OCCCN(C)C)c(-c2cn3ccc(N4CCC(N)CC4)cc3n2)cc1Cl [Example 150, 1-(2-{5-chloro-2-[3-(dimethylamino)propoxy]-4-methoxyphenyl}-imidazo[1,2-a]pyridin-7-yl)piperidin-4-amine] | 0.035 µM | – | – | – | – | – | 2.3 µM | 2.1 µM | 2.2 µM | 0.86 µM | 2.4 µM | – | – | – | – | – | –
13 | COc1cc(OC)c(-c2cn3ccc(N4CCN(CCO)CC4)cc3n2)cc1Cl [Example 43, 2-(4-(2-(5-chloro-2,4-dimethoxyphenyl)imidazo[1,2-a]pyridine-7-yl)piperazin-1-yl)ethanol dihydrochloride] | – | – | – | – | – | – | – | – | – | – | – | 14 µM | 14 µM | 9.8 µM | 6.9 µM | 11 µM | 0.00854 µM
14 | CCCS(=O)(=O)NC1CCN(c2ccn3cc(-c4cc(Cl)c(OC)cc4OC)nc3c2)CC1 [Example 174, N-{1-[2-(5-chloro-2,4-dimethoxyphenyl)imidazo[1,2-a]pyridin-7-yl]piperidin-4-yl}propane-1-sulfonamide] | 0.0104 µM | – | – | – | – | – | 3 µM | 1.8 µM | 2.3 µM | 1.7 µM | 2 µM | – | – | – | – | – | –
15 | COc1cc(OC)c(-c2cn3cc(NCCN)c(N4CCN(S(=O)(=O)C5CC5)CC4)cc3n2)cc1Cl [Example 225, N^1-(2-(5-chloro-2,4-dimethoxyphenyl)-7-(4-(cyclopropylsulfonyl)-piperazin-1-yl)imidazo[1,2-a]pyridin-6-yl)ethane-1,2-diamine] | 0.0022 µM | 10 µM | 9.6 µM | 6.9 µM | 7.3 µM | 7.3 µM | – | – | – | – | – | – | – | – | – | – | –
16 | COc1cc(OCCCN(C)C)c(-c2cn3ccc(N4CCN(S(C)(=O)=O)CC4)cc3n2)cc1Cl [Example 155, 3-(4-chloro-5-methoxy-2-{7-[4-(methylsulfonyl)piperazin-1-yl]-imidazo[1,2-a]pyridin-2-yl}phenoxy)-N,N-dimethylpropan-1-amine] | 0.0127 µM | – | – | – | – | – | 7.5 µM | 5.8 µM | 3.8 µM | 5.5 µM | 7.5 µM | – | – | – | – | – | –
17 | COc1cc(OC)c(-c2cn3ccc(NC(=O)CCN)cc3n2)cc1Cl [Example 168, 3-amino-N-[2-(5-chloro-2,4-dimethoxyphenyl)imidazo[1,2-a]pyridin-7-yl]-propanamide] | 0.0283 µM | – | – | – | – | – | 39 µM | 1.4 µM | 6.2 µM | 2.7 µM | 9.5 µM | – | – | – | – | – | –
18 | CCOP(=O)(CCN1CCN(c2ccn3cc(-c4cc(Cl)c(OC)cc4OCCCN(C)C)nc3c2)CC1)OCC [Example 219, diethyl (2-(4-(2-(5-chloro-2-(3-(dimethylamino)propoxy)-4-methoxyphenyl)-imidazo[1,2-a]pyridin-7-yl)piperazin-1-yl)ethyl)phosphonate] | 0.0201 µM | 10 µM | 10 µM | 7.6 µM | 7.4 µM | 10 µM | – | – | – | – | – | – | – | – | – | – | –
19 | COc1cc(OCCCN(C)C)c(-c2cn3ccc(N4CCCN(C(=O)OC(C)(C)C)CC4)cc3n2)cc1Cl [Example 211, tert-butyl 4-(2-{5-chloro-2-[3-(dimethylamino)propoxy]-4-methoxyphenyl}imidazo[1,2-a]pyridin-7-yl)-1,4-diazepane-1-carboxylate] | 0.0563 µM | – | – | – | – | – | 2.9 µM | 2.4 µM | 0.8 µM | 1.4 µM | 1.4 µM | – | – | – | – | – | –
20 | COc1cc(OC)c(-c2cn3ccc(N4CCN(c5ccccc5)CC4)cc3n2)cc1Cl [Example 282, 2-(5-chloro-2,4-dimethoxyphenyl)-7-(4-phenylpiperazin-1-yl)-imidazo[1,2-a]pyridine] | 0.0349 µM | 1.5 µM | 1.4 µM | 0.96 µM | 1.4 µM | 1.5 µM | – | – | – | – | – | – | – | – | – | – | –
